# Like-named read-outs stand apart in the source and are kept apart here.
# Tests used:
# Grp94 [1] = target: T1, Grp94 (Canis lupus familiaris, UniProt P41148)
# Hsp90 = Hsp90 (Homo sapiens, UniProt P08238); conditions: McLaughlin et al. 2004; read-out: reported interaction with Hsp90; cited from earlier work
# Hsp90α [2] = target: T2, Hsp90α (Homo sapiens, UniProt P07900); conditions: Richter et al. 2008; read-out: reported binding to Hsp90α; cited from earlier work
# Hsp90β [3] = target: T3, Hsp90β (Homo sapiens, UniProt P08238); conditions: Richter et al. 2008; read-out: reported binding to Hsp90β; cited from earlier work
# Hsp90α [4] = target: T2, Hsp90α
# Hsp90β [5] = target: T3, Hsp90β
# Trap-1 [6] = target: T4, Trap-1 (Homo sapiens, UniProt Q12931); conditions: read-out: Trap-1 IC50; 43a as FP probe
# T4 sequence (Q12931 60-704): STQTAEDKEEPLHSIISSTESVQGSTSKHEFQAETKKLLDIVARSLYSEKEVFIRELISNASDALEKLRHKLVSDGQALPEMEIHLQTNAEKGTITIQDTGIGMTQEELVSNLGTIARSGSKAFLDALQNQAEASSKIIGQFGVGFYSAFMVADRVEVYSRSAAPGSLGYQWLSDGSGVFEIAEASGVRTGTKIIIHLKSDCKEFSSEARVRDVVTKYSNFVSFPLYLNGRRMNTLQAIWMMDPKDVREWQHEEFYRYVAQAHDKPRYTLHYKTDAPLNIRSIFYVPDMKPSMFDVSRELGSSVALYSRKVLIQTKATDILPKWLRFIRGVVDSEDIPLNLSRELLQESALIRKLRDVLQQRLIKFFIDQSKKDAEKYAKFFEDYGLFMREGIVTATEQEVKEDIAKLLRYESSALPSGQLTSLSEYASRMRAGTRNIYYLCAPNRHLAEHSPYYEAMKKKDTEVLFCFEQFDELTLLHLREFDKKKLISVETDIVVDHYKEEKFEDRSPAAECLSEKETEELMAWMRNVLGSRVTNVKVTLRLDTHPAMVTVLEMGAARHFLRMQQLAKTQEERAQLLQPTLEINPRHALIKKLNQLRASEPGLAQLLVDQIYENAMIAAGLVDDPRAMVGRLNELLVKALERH
# Trap-1 [7] = target: T4, Trap-1; set-up: purchased Enzo Life Sciences ADI-SPP-848; conditions: cited from earlier work
# Hsp90α [8] = target: T2, Hsp90α; assay: Hsp90 FP saturation binding assay of FP probes; conditions: saturation binding of FP probe; read-out: apparent Kd
# Protocol: (§1) We next determined, in a standard saturation binding experiment that measures ligand binding in the presence of varying concentration of protein, the ability of these ligands as probes for the Hsp90 paralogs (FIGS. 22b-c).
# (§2) Hsp90 saturation binding assay. […] The assay window was calculated as the difference between the FP value recorded for the bound fluorescent tracer and the FP value recorded for the free fluorescent tracer (defined as mP-mPf).
# Hsp90β [9] = target: T3, Hsp90β; assay: Hsp90 FP saturation binding assay of FP probes; conditions: saturation binding of FP probe; read-out: apparent Kd
# Protocol: as §1, §2
# Trap-1 [10] = target: T4, Trap-1; assay: Hsp90 FP saturation binding assay of FP probes; set-up: purchased Enzo Life Sciences ADI-SPP-848; conditions: saturation binding of FP probe; read-out: apparent Kd
# Protocol: as §1, §2
# Grp94 [11] = target: T1, Grp94; assay: Hsp90 FP saturation binding assay of FP probes; set-up: other: 43a as FP probe; Grp94; apparent Kd; assay window; other: probe 115a; conditions: saturation binding of FP probe
# Protocol: as §1, §2
# [12] = read-out: Grp94 IC50, 43a as FP probe
# [13] = read-out: binding affinity (FP competition), probe 115a
# [14] = read-out: Hsp90α IC50, 43a as FP probe
# [15] = read-out: Hsp90β IC50, 43a as FP probe
# T3 sequence (P08238 whole entry): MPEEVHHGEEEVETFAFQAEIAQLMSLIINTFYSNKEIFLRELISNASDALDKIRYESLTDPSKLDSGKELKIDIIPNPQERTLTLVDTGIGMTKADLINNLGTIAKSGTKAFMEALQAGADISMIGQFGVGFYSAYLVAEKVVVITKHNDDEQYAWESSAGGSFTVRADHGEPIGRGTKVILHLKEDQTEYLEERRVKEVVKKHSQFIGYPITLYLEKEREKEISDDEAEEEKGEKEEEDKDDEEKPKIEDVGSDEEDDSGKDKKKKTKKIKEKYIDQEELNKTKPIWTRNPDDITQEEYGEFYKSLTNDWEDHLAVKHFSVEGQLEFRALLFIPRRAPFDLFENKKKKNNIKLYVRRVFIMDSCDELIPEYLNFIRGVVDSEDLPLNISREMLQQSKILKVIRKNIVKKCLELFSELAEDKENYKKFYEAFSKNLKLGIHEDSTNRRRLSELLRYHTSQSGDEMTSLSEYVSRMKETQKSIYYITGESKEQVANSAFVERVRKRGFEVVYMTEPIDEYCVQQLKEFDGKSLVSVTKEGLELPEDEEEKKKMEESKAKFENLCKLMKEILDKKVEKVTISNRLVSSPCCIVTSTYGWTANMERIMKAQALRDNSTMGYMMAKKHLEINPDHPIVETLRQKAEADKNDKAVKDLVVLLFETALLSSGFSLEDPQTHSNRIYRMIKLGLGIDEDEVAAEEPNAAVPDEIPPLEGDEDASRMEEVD
# T1 sequence (P41148 with tags, fused parts or gaps DELINS287-327GGGG): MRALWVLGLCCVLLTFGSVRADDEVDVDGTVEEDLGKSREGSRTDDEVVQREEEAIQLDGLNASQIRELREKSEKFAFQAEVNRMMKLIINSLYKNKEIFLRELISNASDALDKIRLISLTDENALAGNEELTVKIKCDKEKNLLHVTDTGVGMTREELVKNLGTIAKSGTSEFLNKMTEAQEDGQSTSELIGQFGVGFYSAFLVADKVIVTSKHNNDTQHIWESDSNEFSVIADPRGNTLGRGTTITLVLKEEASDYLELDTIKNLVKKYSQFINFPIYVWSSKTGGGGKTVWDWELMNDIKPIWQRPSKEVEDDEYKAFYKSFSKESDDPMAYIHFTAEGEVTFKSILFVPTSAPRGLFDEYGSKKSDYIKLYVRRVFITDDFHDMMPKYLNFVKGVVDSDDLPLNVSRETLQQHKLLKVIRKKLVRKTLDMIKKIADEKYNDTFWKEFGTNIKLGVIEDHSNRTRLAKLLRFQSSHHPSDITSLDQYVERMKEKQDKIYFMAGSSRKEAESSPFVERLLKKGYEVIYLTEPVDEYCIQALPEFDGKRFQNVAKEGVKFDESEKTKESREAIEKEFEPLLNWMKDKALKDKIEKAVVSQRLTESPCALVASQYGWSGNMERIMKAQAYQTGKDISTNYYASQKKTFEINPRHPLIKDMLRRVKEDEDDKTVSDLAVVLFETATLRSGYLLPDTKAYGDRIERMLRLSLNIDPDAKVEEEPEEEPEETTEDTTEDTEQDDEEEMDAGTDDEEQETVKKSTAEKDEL
# Chain of Hsp90 (P08238 whole entry): as the sequence (P08238 whole entry) above
IC50 (Grp94 [1]; [12]),IC50 (Grp94 [1]; [13]),IC50 (Hsp90α [4]; [14]),IC50 (Hsp90α [4]; [13]),IC50 (Hsp90β [5]; [15]),IC50 (Hsp90β [5]; [13]),IC50 (Trap-1 [6]),Kd (Hsp90α [8]),Kd (Hsp90β [9]),Kd (Trap-1 [10]),assay window (Grp94 [11]),Kd (Grp94 [11]; read-out: apparent Kd),SMILES,Kd (Hsp90),Kd (Hsp90α [2]),Kd (Hsp90β [3]),reported greater affinity of Trap-1 than Hsp90 (Trap-1 [7])
11.4 µM,11.4 µM,59.3 µM,59 µM,42.2 µM,42 µM,55.6 µM,,,,,,Nc1ncnc2c1ncn2[C@@H]1O[C@H](COP(=O)(O)OP(=O)(O)O)[C@@H](O)[C@H]1O [ADP],41 µM,51 µM,34 µM,
3.24 µM,3.2 µM,861 µM,,894 µM,,31.3 µM,,,,,,Nc1ncnc2c1ncn2[C@@H]1O[C@H](COP(=O)(O)OP(=O)(O)OP(=O)(O)O)[C@@H](O)[C@H]1O [ATP],840 µM,,,approximately 10 fold
,,,,,,,0.0039 µM,0.0028 µM,0.0058 µM,less than 100 mP,0.0307 µM,C[C@@H](NCCCn1c(Sc2cc(Cl)cc(Cl)c2)nc2c(N)ncnc21)C1CC1 [Compound 40],,,,

# Reference: patent US12600725B2 (Memorial Sloan-Kettering Cancer Center, priority 2013, dated 2026)
